Results taken from publication PMC11494653, “Teixobactin “Swapmers” with L Tail Stereochemistry Retain Antibiotic Activity” (The Journal of Organic Chemistry, 2024).
Converted amounts (≈) assume the structure as drawn. Positions of bridges follow the written chain, without caps; N, C: chain ends. Non-standard residues stand in square brackets, D forms with d. Residues, ends and D or L forms follow the SMILES beside them. Chains are numbered I, II in the order given. d(aIle) = CC[C@H](C)[C@@H](N)C(=O)O; dNMeF = CN[C@H](Cc1ccccc1)C(=O)O; Nphe = O=C(O)CNCc1ccccc1

What was measured:
Assay type in all cases: cell-based
[1] = tested on: Bacillus subtilis ATCC 6051; assay: microbe, parasite or virus in culture; conditions: for MIC Bacillus subtilis ATCC 6051 / MIC B. subtilis: ATCC 6051, 16 h
Text: (§1) We determined the MIC values of these teixobactin swapmer prodrugs against the Gram-positive bacteria Bacillus subtilis, Staphylococcus epidermidis, methicillin-susceptible Staphylococcus aureus (MSSA), and methicillin-resistant Staphylococcus aureus (MRSA) in a broth microdilution assay as described previously.[9],[10] We used the antibiotic vancomycin as a positive control and the Gram-negative bacterium Escherichia coli as a negative control. The MIC values for Lys10-teixobactin 1, Lys10-teixobactin prodrug 2, Arg10-teixobactin 6, and Arg10-teixobactin prodrug 7 are shown in Table 1 for comparison with the swapmer analogues.
(§2) We performed minimum inhibitory concentration (MIC) assays as previously described.[9] A concise procedure is detailed below.
(§3) Stock solutions of teixobactin analogues were prepared gravimetrically by dissolving an appropriate amount of peptide in 20 mg/mL sterile DMSO. The stock solutions were stored at −20 °C for subsequent experiments.
(§4) Bacillus subtilis (ATCC 6051), Staphylococcus epidermidis (ATCC 14990), methicillin-susceptible Staphylococcus aureus (MSSA) (ATCC 29213), and Escherichia coli (ATCC 10798) were cultured from glycerol stocks in Mueller-Hinton broth containing 0.002% polysorbate 80 overnight in a shaking incubator at 37 °C. Methicillin-resistant Staphylococcus aureus (MRSA) (ATCC 700698) was cultured from a glycerol stock in brain hearth infusion broth containing 0.002% polysorbate 80 overnight in a shaking incubator at 37 °C. After overnight incubation, each culture was diluted with the appropriate media (containing 0.002% polysorbate 80) to 1 × 10^6 colony-forming units (CFU)/mL as previously described.[12],[15],[16] Briefly, we have previously determined the CFU/mL for each bacterium at OD600 = 0.075 for 200 μL of bacterial culture in a 96-well plate. The OD600 of each overnight culture was determined, and then each culture was diluted to OD600 = 0.075. Cultures were further diluted to achieve 1 × 10^6 CFU/mL solutions.
(§5) Aliquots of the 20 mg/mL peptide stock solutions were diluted to make a 64 μg/mL solution in Mueller-Hinton broth containing 0.002% polysorbate 80 and a 64 μg/mL solution in brain heart infusion broth containing 0.002% polysorbate 80. The solutions were mixed by pipetting to ensure homogeneity. A 200-μL aliquot of a 64 μg/mL solution was transferred to a 96-well plate. 2-fold serial dilutions were made with media containing 0.002% polysorbate 80 across the 96-well plate to achieve a final volume of 100 μL in each well (initial concentrations ranging from 64 to 0.0625 μg/mL). A 100-μL aliquot of a 1 × 10^6 CFU/mL bacterial solution was added to each well in the series, resulting in final bacterial concentrations of 5 × 10^5 CFU/mL in each well. As 100 μL of bacteria were added to each well, the concentration of peptide was also diluted 2-fold (final concentrations ranging from 32 μg/mL to 0.03125 μg/mL). Each plate was covered with a lid and incubated at 37 °C for 16 h. The optical density measurements were measured at 600 nm using a 96-well UV–vis plate reader (MultiSkan GO, Thermo Scientific). The MIC values were taken as the lowest concentration that had no bacterial growth. MIC assays for each compound were performed in triplicate to ensure reproducibility.

[2] = tested on: Escherichia coli ATCC 10798; assay: microbe, parasite or virus in culture; conditions: for MIC Escherichia coli ATCC 10798: ATCC 10798, 16 h
Text: as §1, §2, §3, §4, §5

[3] = tested on: Staphylococcus aureus (MRSA) ATCC 700698; assay: microbe, parasite or virus in culture; conditions: for MIC Staphylococcus aureus (MRSA) ATCC 700698: ATCC 700698, 16 h
Text: as §1, §2, §3, §4, §5

[4] = tested on: Staphylococcus aureus (MSSA) ATCC 29213; assay: microbe, parasite or virus in culture; conditions: for MIC Staphylococcus aureus (MSSA) ATCC 29213: ATCC 29213, 16 h
Text: as §1, §2, §3, §4, §5

[5] = tested on: Staphylococcus epidermidis ATCC 14990; assay: microbe, parasite or virus in culture; conditions: for MIC Staphylococcus epidermidis ATCC 14990: ATCC 14990, 16 h
Text: as §1, §2, §3, §4, §5

all bacteria tested = assay: MIC broth microdilution assay, summary over all bacteria; conditions: all bacteria tested other than B. subtilis
Text: as §1, §2, §3
as §4, with “After overnight incubation, each culture was diluted with the appropriate media (containing 0.002% polysorbate 80) to 1 × 10^6 colony-forming units (CFU)/mL as previously described.[12],[15],[16]” left out, “Cultures were further diluted to achieve 1 × 10^6 CFU/mL solutions.” left out
Aliquots of the 20 mg/mL peptide stock solutions were diluted to make a 64 μg/mL solution in Mueller-Hinton broth containing 0.002% polysorbate 80 and a 64 μg/mL solution in brain heart infusion broth containing 0.002% polysorbate 80. […] The optical density measurements were measured at 600 nm using a 96-well UV–vis plate reader (MultiSkan GO, Thermo Scientific). […]

[6] = tested on: Gram-positive bacteria tested; conditions: 16 h
Text: as §1, §2, §3, §4
Aliquots of the 20 mg/mL peptide stock solutions were diluted to make a 64 μg/mL solution in Mueller-Hinton broth containing 0.002% polysorbate 80 and a 64 μg/mL solution in brain heart infusion broth containing 0.002% polysorbate 80. The solutions were mixed by pipetting to ensure homogeneity. A 200-μL aliquot of a 64 μg/mL solution was transferred to a 96-well plate. 2-fold serial dilutions were made with media containing 0.002% polysorbate 80 across the 96-well plate to achieve a final volume of 100 μL in each well (initial concentrations ranging from 64 to 0.0625 μg/mL). […] The optical density measurements were measured at 600 nm using a 96-well UV–vis plate reader (MultiSkan GO, Thermo Scientific). […]

SMILES | MIC Bacillus subtilis ATCC 6051 [1] [µg/mL] | MIC Escherichia coli ATCC 10798 [2] [µg/mL] | MIC Staphylococcus aureus (MRSA) ATCC 700698 [3] [µg/mL] | MIC Staphylococcus aureus (MSSA) ATCC 29213 [4] [µg/mL] | MIC Staphylococcus epidermidis ATCC 14990 [5] [µg/mL] | MIC B. subtilis [1] [µg/mL] | MIC values against the Gram-positive bacteria tested [6] [µg/mL] | antibiotic activity in words against B. subtilis ([1]; concentration range tested up to 32 μg/mL) | antibiotic activity in words against all other bacteria tested (all bacteria tested) | fold reduced activity compared to the unswapped analogues 1, 2, 6, and 7 [6] | MIC ([1]; Bacillus subtilis, ATCC6051, 16 h, read-out: MIC Bacillus subtilis ATCC 6051) [µg/mL] | MIC ([2]; Escherichia coli, ATCC10798, 16 h, read-out: MIC Escherichia coli ATCC 10798) [µg/mL] | MIC ([3]; Staphylococcus aureus, 16 h, read-out: MIC Staphylococcus aureus (MRSA) ATCC 700698) [µg/mL] | MIC ([4]; Staphylococcus aureus, 16 h, read-out: MIC Staphylococcus aureus (MSSA) ATCC 29213) [µg/mL] | MIC ([5]; Staphylococcus epidermidis, ATCC14990, 16 h, read-out: MIC Staphylococcus epidermidis ATCC 14990) [µg/mL]
CC[C@H](C)[C@H](NC(=O)CNCc1ccccc1)C(=O)N[C@@H](CO)C(=O)N[C@H](C(=O)N[C@@H](CCC(N)=O)C(=O)N[C@H](C(=O)OC[C@H](N)C(=O)N[C@H]1C(=O)N[C@@H](C)C(=O)N[C@@H](CCCCN)C(=O)N[C@@H]([C@@H](C)CC)C(=O)O[C@H]1C)[C@@H](C)CC)[C@@H](C)CC [compound 5, N-Bn-Gly1,Ile4,Gln5,[Ile6-O-Ser7],Lys10-teixobactin] (I: H-[Nphe]ISIQI / II: H-S[dT]AKI; ester I:C-II:1, II:2-II:C) | 32 (≈ 26.6 µM) | >32 | >32 | >32 | >32 | – | – | only very weakly active | inactive | – | – | – | – | – | –
CC[C@H](C)[C@H](NC(=O)[C@@H](Cc1ccccc1)NC)C(=O)N[C@@H](CO)C(=O)N[C@H](CCC(N)=O)C(=O)N[C@@H](C(=O)N[C@H](C(=O)N[C@@H](CO)C(=O)N[C@H]1C(=O)N[C@@H](C)C(=O)N[C@@H](CCCNC(=N)N)C(=O)N[C@@H]([C@@H](C)CC)C(=O)O[C@H]1C)[C@@H](C)CC)[C@@H](C)CC [compound 6, Arg10-teixobactin] | ≤0.0313 | >32 | 2 (≈ 1.61 µM) | 2 (≈ 1.61 µM) | 0.5 (≈ 0.402 µM) | ≤ 0.0625 | – | – | – | – | – | – | – | – | –
CN[C@H](CC(C)C)C(=O)N[C@H]1C(=O)N[C@@H](CC(N)=O)C(=O)N[C@H]2C(=O)N[C@H]3C(=O)N[C@H](C(=O)N[C@H](C(=O)O)c4cc(O)cc(O)c4-c4cc3ccc4O)[C@H](O)c3ccc(c(Cl)c3)Oc3cc2cc(c3O[C@@H]2O[C@H](CO)[C@@H](O)[C@H](O)[C@H]2O[C@H]2C[C@](C)(N)[C@H](O)[C@H](C)O2)Oc2ccc(cc2Cl)[C@H]1O [vancomycin, reference compound] | – | – | – | – | – | – | – | – | – | – | 0.125 to 0.25 (≈ 0.0863 to 0.173 µM) | > 32 | 4 (≈ 2.76 µM) | 1 to 2 (≈ 0.69 to 1.38 µM) | 1 to 2 (≈ 0.69 to 1.38 µM)

Second part, led by results:

MIC Bacillus subtilis ATCC 6051 [1] [µg/mL] | MIC Escherichia coli ATCC 10798 [2] [µg/mL] | MIC Staphylococcus aureus (MRSA) ATCC 700698 [3] [µg/mL] | MIC Staphylococcus aureus (MSSA) ATCC 29213 [4] [µg/mL] | MIC Staphylococcus epidermidis ATCC 14990 [5] [µg/mL] | MIC B. subtilis [1] [µg/mL] | MIC values against the Gram-positive bacteria tested [6] [µg/mL] | SMILES | antibiotic activity in words against B. subtilis ([1]; concentration range tested up to 32 μg/mL) | antibiotic activity in words against all other bacteria tested (all bacteria tested) | fold reduced activity compared to the unswapped analogues 1, 2, 6, and 7 [6] | MIC ([1]; Bacillus subtilis, ATCC6051, 16 h, read-out: MIC Bacillus subtilis ATCC 6051) [µg/mL] | MIC ([2]; Escherichia coli, ATCC10798, 16 h, read-out: MIC Escherichia coli ATCC 10798) [µg/mL] | MIC ([3]; Staphylococcus aureus, 16 h, read-out: MIC Staphylococcus aureus (MRSA) ATCC 700698) [µg/mL] | MIC ([4]; Staphylococcus aureus, 16 h, read-out: MIC Staphylococcus aureus (MSSA) ATCC 29213) [µg/mL] | MIC ([5]; Staphylococcus epidermidis, ATCC14990, 16 h, read-out: MIC Staphylococcus epidermidis ATCC 14990) [µg/mL]
0.0625 (≈ 0.0502 µM) | >32 | 1 (≈ 0.804 µM) | 2 (≈ 1.61 µM) | 0.5 (≈ 0.402 µM) | ≤ 0.0625 | – | CC[C@H](C)[C@H](NC(=O)[C@@H](Cc1ccccc1)NC)C(=O)N[C@@H](CO)C(=O)N[C@H](CCC(N)=O)C(=O)N[C@@H](C(=O)N[C@H](C(=O)OC[C@H](N)C(=O)N[C@H]1C(=O)N[C@@H](C)C(=O)N[C@@H](CCCNC(=N)N)C(=O)N[C@@H]([C@@H](C)CC)C(=O)O[C@H]1C)[C@@H](C)CC)[C@@H](C)CC [compound 7, [Ile6-O-Ser7],Arg10-teixobactin] (I: H-[dNMeF]IS[dQ][d(aIle)]I / II: H-S[dT]ARI; ester I:C-II:1, II:2-II:C) | – | – | – | – | – | – | – | –
2 (≈ 1.61 µM) | >32 | 4 (≈ 3.21 µM) | 4 (≈ 3.21 µM) | 2 (≈ 1.61 µM) | – | 2 to 4 | CC[C@H](C)[C@H](NC(=O)[C@H](CO)NC(=O)[C@@H](NC(=O)[C@@H](Cc1ccccc1)NC)[C@@H](C)CC)C(=O)N[C@@H](CCC(N)=O)C(=O)N[C@H](C(=O)OC[C@H](N)C(=O)N[C@H]1C(=O)N[C@@H](C)C(=O)N[C@@H](CCCNC(=N)N)C(=O)N[C@@H]([C@@H](C)CC)C(=O)O[C@H]1C)[C@@H](C)CC [compound 8, Ile4,Gln5,[Ile6-O-Ser7],Arg10-teixobactin] (I: H-[dNMeF]ISIQI / II: H-S[dT]ARI; ester I:C-II:1, II:2-II:C) | – | – | 2–4 fold | – | – | – | – | –
